US10526323B2, “Indazole and azaindazole substituted compounds as mGluR4 allosteric potentiators, compositions, and methods of treating neurological dysfunction” (Vanderbilt University, priority 2015, dated 2020)

target: mGluR4 (UniProt Q14833); assay: mGluR4 potentiation assay: increase in response to an EC20 concentration of agonist (species not given); format: cell-based; settings: EC50 for potentiation of mGluR4; table does not state human or rat
Procedure: The disclosed compounds and compositions can be evaluated for their ability to act as a potentiator of metabotropic glutamate receptor activity, in particular mGluR4 activity, by any suitable known methodology known in the art. For example, Chinese Hamster Ovary (CHO) cells transfected with human mGluR4 or […] co-transfected with rat mGluR4 and the G-protein regulated Inwardly Rectifying Potassium channel (GIRK) were plated in clear bottom assay plates for assay in a Hamamatsu FDSS Fluorometric Plate Reader. The cells were loaded with either a Ca2+-sensitive fluorescent dye or the thallium responsive dye and the plates were washed and placed into a suitable kinetic plate reader. For human mGluR4 assays, a fluorescence baseline was established for 3-5 seconds, the disclosed compounds were then added to the cells, and the response in cells was measured. Approximately two and a half minutes later, a concentration of mGluR4 orthosteric agonist (e.g. glutamate or L-AP4) eliciting approximately 20% (EC20) of the maximal agonist response was added to the cells, and the response was measured. Two minutes later, a concentration of mGluR4 agonist (e.g. glutamate or L-AP4) eliciting 80% (EC80) of the maximal agonist response was added to the cells, and the response was measured. For rat mGluR4/GIRK experiments, a baseline was established for approximately five seconds, disclosed compounds were added, and either an EC20 or EC80 concentration of agonist was added approximately two and one half minutes later. Potentiation of the agonist response of mGluR4 by the disclosed compounds was observed as an increase in response to the EC20 concentration of agonist in the presence of compound compared to the response to agonist in the absence of compound. Similarly, antagonism of the agonist response of mGluR4 by the disclosed compounds was observed as a decrease in response to the EC80 concentration of agonist in the presence of compound compared to the response to agonist in the absence of compound.
The above described assay operated in two modes. In the first mode, a range of concentrations of the disclosed compounds are added to cells, followed by a single fixed concentration of agonist. If the compound acts as a potentiator, an EC50 value for potentiation and a maximum extent of potentiation by the compound at this concentration of agonist is determined by non-linear curve fitting. If the compound acts as a noncompetitive antagonist, an IC50 value is determined by non-linear curve fitting. In the second mode, several fixed concentrations of the disclosed compounds are added to various wells on a plate, followed by a range in concentrations of agonist for each concentration of disclosed compound. The EC50 values for the agonist at each concentration of compound are determined by non-linear curve fitting. A decrease in the EC50 value of the agonist with increasing concentrations of the sample compound (a leftward shift of the agonist concentration-response curve) is an indication of the degree of mGluR4 potentiation at a given concentration of the sample compound. A decrease in the maximal response of the agonist with increasing concentrations of the sample compounds, with or without a rightward shift in agonist potency, is an indication of the degree of noncompetitive antagonism at mGluR4. The second mode also indicates whether the sample compounds also affect the maximum response to mGluR4 to agonists.
These compounds are positive allosteric modulators (potentiators) of human and rat mGluR4 and were selective for mGluR4 compared to the other seven subtypes of metabotropic glutamate receptors.

Compared with `Clc1cc(Nc2n[nH]c3nccnc23)cc2cnn(CC3CCC3)c12` [Example 64, N-(7-chloro-1-(cyclobutylmethyl)-1H-indazol-5-yl)-1H-pyrazolo[3,4-b]pyrazin-3-amine], `c1cnc2c(Nc3ccc4nn(CC5CCC5)cc4c3)n[nH]c2n1` [Example 87, N-(2-(cyclobutylmethyl)-2H-indazol-5-yl)-1H-pyrazolo[3,4-b]pyrazin-3-amine] is 11-fold higher in EC50: 67 nM for the first, 749 nM for the second. The first is the more potent here.

`Cn1ncc2cc(Nc3n[nH]c4cccnc34)ccc21` [Example 55, N-(1-methyl-1H-indazol-5-yl)-1H-pyrazolo[4,3-b]pyridin-3-amine] and `[2H]C([2H])([2H])n1ncc2cc(Nc3n[nH]c4cccnc34)ccc21` [Example 96, N-(1-(methyl-d3)-1H-indazol-5-yl)-1H-pyrazolo[4,3-b]pyridin-3-amine] are within 1.5-fold of each other in EC50: 790 nM for the first, 863 nM for the second.

First: FC(F)(F)Cn1nc(Cl)c2cc(Nc3n[nH]c4cccnc34)ccc21 [Example 275, N-(3-chloro-1-(2,2,2-trifluoroethyl)-1H-indazol-5-yl)-1H-pyrazolo[4,3-b]pyridin-3-amine]
Second: CCn1nc(Cl)c2cc(Nc3n[nH]c4cccnc34)ccc21 [Example 141, N-(3-chloro-1-ethyl-1H-indazol-5-yl)-1H-pyrazolo[4,3-b]pyridin-3-amine]
The EC50 of the first is 3.3-fold higher: 2720 nM for the first, 815 nM for the second. The second is the more potent here.

Compared with `Cc1nn(CCO)c2ccc(Nc3n[nH]c4cccnc34)cc12` [Example 94, 2-(5-((1H-pyrazolo[4,3-b]pyridin-3-yl)amino)-3-methyl-1H-indazol-1-yl)ethan-1-ol], `COCCn1nc(C)c2cc(Nc3n[nH]c4cccnc34)ccc21` [Example 133, N-(1-(2-methoxyethyl)-3-methyl-1H-indazol-5-yl)-1H-pyrazolo[4,3-b]pyridin-3-amine] is lower in EC50: > 10000 nM for the first, 379 nM for the second. The second is the more potent here.

Going from `CC[C@H](C)Cn1nc(C)c2cc(Nc3n[nH]c4cccnc34)cnc21` [Example 155, 3-methyl-1-[(2S)-2-methylbutyl]-N-(1H-pyrazolo[4,3-b]pyridin-3-yl)pyrazolo[3,4-b]pyridin-5-amine] to `COCCn1nc(C)c2cc(Nc3n[nH]c4cccnc34)cnc21` [Example 261, 1-(2-methoxyethyl)-3-methyl-N-(1H-pyrazolo[4,3-b]pyridin-3-yl)pyrazolo[3,4-b]pyridin-5-amine], the EC50 rises from 160 nM to 2330 nM (15-fold). The first is the more potent here.

First: Cc1nn(CC(C)(F)F)c2ccc(Nc3n[nH]c4cccnc34)cc12 [Example 139, N-(1-(2,2-difluoropropyl)-3-methyl-1H-indazol-5-yl)-1H-pyrazolo[4,3-b]pyridin-3-amine]
Second: Cn1nc(C(F)(F)F)c2cc(Nc3n[nH]c4cccnc34)ccc21 [Example 110, N-(1-methyl-3-(trifluoromethyl)-1H-indazol-5-yl)-1H-pyrazolo[4,3-b]pyridin-3-amine]
The EC50 of the first is 2.6-fold higher: 310 nM for the first, 119 nM for the second. The second is the more potent here.

Going from `Cc1nn(CC(C)(C)C)c2ncc(Nc3n[nH]c4cccnc34)cc12` [Example 262, 1-(2,2-dimethylpropyl)-3-methyl-N-(1H-pyrazolo[4,3-b]pyridin-3-yl)pyrazolo[3,4-b]pyridin-5-amine] to `Cc1nn(C2CCOCC2)c2ncc(Nc3n[nH]c4cccnc34)cc12` [Example 259, 3-methyl-N-(1H-pyrazolo[4,3-b]pyridin-3-yl)-1-tetrahydropyran-4-yl-pyrazolo[3,4-b]pyridin-5-amine], the EC50 rises from 160 nM to 3700 nM (23-fold). The first is the more potent here.

Compared with `Cn1cc2c(Cl)cc(Nc3n[nH]c4nccnc34)cc2n1` [Example 10, N-(4-chloro-2-methyl-2H-indazol-6-yl)-1H-pyrazolo[3,4-b]pyrazin-3-amine], `Cc1nn(C(=O)C(F)(F)F)c2ccc(Nc3n[nH]c4nccnc34)cc12` [Example 138, 1-(5-((1H-pyrazolo[3,4-b]pyrazin-3-yl)amino)-3-methyl-1H-indazol-1-yl)-2,2,2-trifluoroethan-1-one] is 6.6-fold higher in EC50: 515 nM for the first, 3400 nM for the second.

`Cn1nc(OCc2cccnc2)c2ccc(Nc3n[nH]c4cccnc34)cc21` [Example 184, N-(1-methyl-3-(pyridin-3-ylmethoxy)-1H-indazol-6-yl)-1H-pyrazolo[4,3-b]pyridin-3-amine] and `Cn1nc(OCC2COC2)c2ccc(Nc3n[nH]c4cccnc34)cc21` [Example 195, N-[1-methyl-3-(oxetan-3-ylmethoxy)indazol-6-yl]-1H-pyrazolo[4,3-b]pyridin-3-amine] are within 1.5-fold of each other in EC50: 83 nM for the first, 96.6 nM for the second.

Compared with `Cn1ncc2cc(Nc3n[nH]c4cccnc34)cnc21` [Example 151, N-(1-methyl-1H-pyrazolo[3,4-b]pyridin-5-yl)-1H-pyrazolo[4,3-b]pyridin-3-amine], `CC(C)n1ncc2cc(Nc3n[nH]c4cccnc34)cnc21` [Example 152, N-(1-isopropyl-1H-pyrazolo[3,4-b]pyridin-5-yl)-1H-pyrazolo[4,3-b]pyridin-3-amine] is 1.6-fold lower in EC50: 582 nM for the first, 371 nM for the second. The second is the more potent here.

First: Cn1nc(C(=O)N2CCC(S(C)(=O)=O)C2)c2ccc(Nc3n[nH]c4cccnc34)cc21 (stereo not drawn) [Example 170, [1-methyl-6-(1H-pyrazolo[4,3-b]pyridin-3-ylamino)indazol-3-yl]-(3-methylsulfonylpyrrolidin-1-yl)methanone]
Second: Cn1nc(C(=O)N2CCC(F)CC2)c2ccc(Nc3n[nH]c4cccnc34)cc21 [Example 164, (4-fluoro-1-piperidyl)-[1-methyl-6-(1H-pyrazolo[4,3-b]pyridin-3-ylamino)indazol-3-yl]methanone]
The EC50 of the first is 2.1-fold higher: 2340 nM for the first, 1110 nM for the second. The second is the more potent here.

Going from `C=C(c1nn(C)c2cc(Nc3n[nH]c4cccnc34)ccc12)C(F)(F)F` [Example 40, N-(1-methyl-3-(3,3,3-trifluoroprop-1-en-2-yl)-1H-indazol-6-yl)-1H-pyrazolo[4,3-b]pyridin-3-amine] to `Cn1nc(C(=O)NCCS(C)(=O)=O)c2ccc(Nc3n[nH]c4cccnc34)cc21` [Example 159, 1-methyl-N-(2-methylsulfonylethyl)-6-(1H-pyrazolo[4,3-b]pyridin-3-ylamino)indazole-3-carboxamide], the EC50 rises from 147 nM to 3940 nM (27-fold). The first is the more potent here.

Compared with `Cn1nc(N2CC(C)(C3CC3)CC2=O)c2ccc(Nc3n[nH]c4cccnc34)cc21` (stereo not drawn) [Example 39, 1-(6-((1H-pyrazolo[4,3-b]pyridin-3-yl)amino)-1-methyl-1H-indazol-3-yl)-4-cyclopropyl-4-methylpyrrolidin-2-one], `Cn1nc(C(=O)N2CCC(C(N)=O)CC2)c2ccc(Nc3n[nH]c4cccnc34)cc21` [Example 161, 1-[1-methyl-6-(1H-pyrazolo[4,3-b]pyridin-3-ylamino)indazole-3-carbonyl]piperidine-4-carboxamide] is higher in EC50: 765 nM for the first, > 10000 nM for the second. The first is the more potent here.

Compared with `CC(C)n1nc(Cl)c2cc(Nc3n[nH]c4cccnc34)ccc21` [Example 280, N-(3-chloro-1-isopropyl-1H-indazol-5-yl)-1H-pyrazolo[4,3-b]pyridin-3-amine], `Cc1nn(CC2CCCC2)c2ccc(Nc3n[nH]c4cccnc34)cc12` [Example 106, N-(1-(cyclopentylmethyl)-3-methyl-1H-indazol-5-yl)-1H-pyrazolo[4,3-b]pyridin-3-amine] is lower in EC50: > 10000 nM for the first, 145 nM for the second. The second is the more potent here.

Compared with `Cn1nc(C2CC2)c2ccc(Nc3n[nH]c4c3CC(F)(F)CC4)cc21` [Example 14, 3-cyclopropyl-N-(5,5-difluoro-4,5,6,7-tetrahydro-1H-indazol-3-yl)-1-methyl-1H-indazol-6-amine], `Cn1nc(C(=O)N2CCOCC2)c2ccc(Nc3n[nH]c4cccnc34)cc21` [Example 167, [1-methyl-6-(1H-pyrazolo[4,3-b]pyridin-3-ylamino)indazol-3-yl]-morpholino-methanone] is lower in EC50: > 10000 nM for the first, 1580 nM for the second. The second is the more potent here.

Going from `Cc1cc(Cn2nc(C)c3cc(Nc4n[nH]c5ccccc45)ccc32)no1` [Example 78, N-(3-methyl-1-((5-methylisoxazol-3-yl)methyl)-1H-indazol-5-yl)-1H-indazol-3-amine] to `Cc1nn(C)c2ncc(Nc3n[nH]c4ccccc34)cc12` [Example 271, N-(1H-indazol-3-yl)-1,3-dimethyl-1H-pyrazolo[3,4-b]pyridin-5-amine], the EC50 rises from 129 nM to > 10000 nM.

Work on `Cc1ccccc1Cc1nn(C)c2cc(Nc3n[nH]c4cccnc34)ccc12` [Example 48, N-(1-methyl-3-(2-methylbenzyl)-1H-indazol-6-yl)-1H-pyrazolo[4,3-b]pyridin-3-amine] yielded an EC50 of 4400 nM.
